# In US8163939B2, “Ascorbic acid derivative or salt thereof, production method thereof, and cosmetic” (Seikwa Kasei Company, Limited, priority 2007, dated 2012):
# What was measured:
# [1] = system: B16 melanoma 4A5 cell; experiment: Whitening test: theophylline-induced melanine production in B16 melanoma 4A5 cells; assay type: cell-based, mouse; settings: for Whitening effect (melanine production suppressing rate): sample at a concentration of 100 μM or less, theophylline-induced melanine production, 3 days culture, N=4;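 for Whitening effect (melanine production suppressing rate): grades: ± under 20% + 20-40% ++ 40-70% +++ 70-100% suppression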
# Experimental: As a test for a whitening effect, evaluation of the action of B16 melanoma 4A5 cell on theophylline-induced melanine production was carried out on an ascorbic acid derivative of the present invention, according to the following procedure. The same evaluation was carried out also on ascorbic acid, known compounds: ascorbic acid salts, and ascorbic acid derivatives, as comparison. The results are shown in Tables 38 to 40. • (1) B16 mouse melanoma 4A5 strain was sowed onto a 48-well plate at a cell density of 2.0×10^4 cells/well. • (2) Culturing was performed for 24 hours with Dulbecco's Modified Eagle's medium (manufactured by SIGMA. Hereinafter, abbreviated as D-MEM) containing 10% fetal bovine serum (manufactured by Roshe Diagnostics). Then, it was changed to 0.2 mM theophylline and a 10% fetal bovine serum-containing D-MEM which contains a sample of given concentration. • (3) After culturing for 3 days in the co-existence of a sample, the medium was removed using an aspirator. Then, after distilled water was added, cells were broken by an ultrasonic wave. • (4) Thereafter, the amount of protein was determined using BCA protein assay kit (manufactured by PIERCE), and the produced amount of melanine was measured by an alkali solubilizing method. To the cell-destructed solution was added sodium hydroxide so as to give a final concentration of 2N and the mixture was dissolved by heating (60° C., 15 minutes), then, the absorbance at 450 nm was measured using a micro plate reader. The melanine amount was calculated from a calibration curve made using synthetic melanine (SIGMA) as a standard. The melanine amount per unit protein was calculated by dividing the melanine amount by the protein amount. • (5) The melanine production suppressing rate was calculated according to the following formula. Melanine production suppressing rate (%)=[1−(A−B)/(C−B)]×100 [wherein, A represents the melanine amount per unit protein (g/g) in adding a sample, B represents the melanine amount per unit protein (g/g) in the normal group, and C represents the melanine amount per unit protein (g/g) in the control group.]
# In the following Tables, the melanine production suppressing rate in measuring a sample at a concentration of 100 μM or less is expressed as described below. The measurement was carried out at N=4.
# [2] = system: Normal human dermal fibroblasts; experiment: Collagen production of human fibroblast (Sircol collagen assay, 100 μM, 48 hours); assay type: cell-based; settings: cultured 48 hours; for activity at 100 µM: Homo sapiens, Fibroblast, N=4, read-out: Collagen production promoting effect (collagen production amount, % of control group); for Collagen production promoting effect (collagen production amount, % of control group): N=4
# Experimental: Normal human dermal fibroblasts were regulated with a 10% (v/v) fetal bovine serum (manufactured by Roshe Diagnostics)-containing D-MEM so as to give a cell density of 2.5×10^4 cells/well, then, pre-incubation for 24 hours was performed on a 96-well plate. After the medium was removed, a sample regulated with a 5% (v/v) fetal bovine serum-containing D-MEM to a concentration of 100 μM was added to each well, then, cultured for 48 hours under 37° C. and 5% CO2. After completion of culturing, the amount of free collagen was measured using Sircol collagen assay kit (manufactured by Biocolor). The measurement was carried out at N=4.
# The collagen production amount in measuring a sample at a concentration of 100 μM was compared with the control group, and the results thereof (% value when the control group is 100%) are shown in Tables 44 and 45 based on the following standard.
molecule,measurement,setting,value
CCCCCCOC1=C(OCC(O)COCCCC)[C@@H]([C@@H](O)CO)OC1=O (stereo partly drawn) [Example 69],Whitening effect (melanine production suppressing rate),[1],+++ (70 to 100%:+++)
"CCOCC(O)COC1=C(O)C(C(O)CO)OC1=O (stereo not drawn) [Example 13, 2-O-ethylglyceryl ascorbic acid]",Whitening effect (melanine production suppressing rate),[1],+ (20 to 40%:+)
"O=C1OC(C(O)CO)C(OCC(O)CO)=C1OCc1ccccc1 (stereo not drawn) [Example 17, 3-O-glyceryl-2-O-benzyl ascorbic acid]",Whitening effect (melanine production suppressing rate),[1],+ (20 to 40%:+)
same,activity at 100 µM,[2],100 to 200%
CCCCCCCCCCCCCCCCOCC(O)COC1=C(OCCCCCCCC)C(=O)O[C@@H]1[C@@H](O)CO (stereo partly drawn) [Example 77],Whitening effect (melanine production suppressing rate),[1],+ (20 to 40%:+)
CCCCOCC(O)COC1=C(O)[C@@H]([C@@H](O)CO)OC1=O (stereo partly drawn) [Example 48],Whitening effect (melanine production suppressing rate),[1],+++ (70 to 100%:+++)
same,"Collagen production promoting effect (collagen production amount, % of control group)",[2],+ (100 to 200%:+)
CCCCCCCOC1=C(OCC(O)CO)[C@@H]([C@@H](O)CO)OC1=O (stereo partly drawn) [Example 59],Whitening effect (melanine production suppressing rate),[1],++ (40 to 70%:++)
C=CCOC1=C(OCC(O)COc2ccccc2)[C@@H]([C@@H](O)CO)OC1=O (stereo partly drawn) [Example 55],Whitening effect (melanine production suppressing rate),[1],+ (20 to 40%:+)
"O=C1O[C@H]([C@@H](O)CO)C([O-])=C1O.[Na+] [sodium ascorbate, reference compound]",Whitening effect (melanine production suppressing rate),[1],± (<20%:±)
3-O-dodecylglyceryl-2-O-octylglyceryl ascorbic acid [Example 26],Whitening effect (melanine production suppressing rate),[1],++ (40 to 70%:++)
CCOCC(O)COC1=C(OCC)C(=O)O[C@@H]1[C@@H](O)CO (stereo partly drawn) [Example 66],Whitening effect (melanine production suppressing rate),[1],+ (20 to 40%:+)
same,"Collagen production promoting effect (collagen production amount, % of control group)",[2],+ (100 to 200%:+)
CCCCCCCCCCCCCCCCOCC(O)COC1=C(OCC(O)CO)C(C(O)CO)OC1=O (stereo not drawn) [Example 86],Whitening effect (melanine production suppressing rate),[1],++ (40 to 70%:++)
"CCCCCCCCCCCCCCCCOC1=C(OCC(O)CO)[C@@H]([C@@H](O)CO)OC1=O (stereo partly drawn) [Example 15, 3-O-glyceryl-2-O-hexadecyl ascorbic acid]",Whitening effect (melanine production suppressing rate),[1],++ (40 to 70%:++)
"O=C1OC(C(O)CO)C(OCC(O)COc2ccccc2)=C1OCC(O)COc1ccccc1 (stereo not drawn) [Example 88, 2,3-di-O-phenylglyceryl ascorbic acid]",Whitening effect (melanine production suppressing rate),[1],++ (40 to 70%:++)
same,"Collagen production promoting effect (collagen production amount, % of control group)",[2],+ (100 to 200%:+)
OC[C@H]1O[C@@H](Oc2ccc(O)cc2)[C@H](O)[C@@H](O)[C@@H]1O [arbutin],Whitening effect (melanine production suppressing rate),[1],++ (40 to 70%:++)
CC=CCOC1=C(OCC(O)COCCCC)[C@@H]([C@@H](O)CO)OC1=O (stereo partly drawn) [Example 53],Whitening effect (melanine production suppressing rate),[1],+ (20 to 40%:+)
CCCCCCCCC(O)COC1=C(OCC(O)CO)C(=O)OC1C(O)CO (stereo not drawn) [Example 83],Whitening effect (melanine production suppressing rate),[1],+ (20 to 40%:+)
same,"Collagen production promoting effect (collagen production amount, % of control group)",[2],+ (100 to 200%:+)
CCCCCCCCCCCOC1=C(OCC(O)CO)[C@@H]([C@@H](O)CO)OC1=O (stereo partly drawn) [Example 62],Whitening effect (melanine production suppressing rate),[1],++ (40 to 70%:++)
CCCCOC1=C(OCC(O)CO)[C@@H]([C@@H](O)CO)OC1=O (stereo partly drawn) [Example 57],Whitening effect (melanine production suppressing rate),[1],+ (20 to 40%:+)
same,"Collagen production promoting effect (collagen production amount, % of control group)",[2],+ (100 to 200%:+)
CCCCCCCCCCCCOC1=C(OCC(O)CO)[C@@H]([C@@H](O)CO)OC1=O (stereo partly drawn) [Example 63],Whitening effect (melanine production suppressing rate),[1],++ (40 to 70%:++)
"O=C1OC(C(O)CO)C(OC(CO)c2ccccc2)=C1O (stereo not drawn) [compound 12, 3-O-(2-hydroxy-1-phenylethyl)ascorbic acid]",Whitening effect (melanine production suppressing rate),[1],++ (40 to 70%:++)
CCCCCCCCOC1=C(OCC(O)COCCCC)[C@@H]([C@@H](O)CO)OC1=O (stereo partly drawn) [Example 70],Whitening effect (melanine production suppressing rate),[1],++ (40 to 70%:++)
CCCCCCCCCCOC1=C(OCC(O)CO)[C@@H]([C@@H](O)CO)OC1=O (stereo partly drawn) [Example 61],Whitening effect (melanine production suppressing rate),[1],+++ (70 to 100%:+++)
CCCCOCC(O)COC1=C(OCC)C(=O)O[C@@H]1[C@@H](O)CO (stereo partly drawn) [Example 68],Whitening effect (melanine production suppressing rate),[1],+ (20 to 40%:+)
CCCCCCCCCCCCOCC(O)COC1=C(OCC(O)COCCCC)C(C(O)CO)OC1=O (stereo not drawn) [Example 90],Whitening effect (melanine production suppressing rate),[1],+ (20 to 40%:+)
same,"Collagen production promoting effect (collagen production amount, % of control group)",[2],+ (100 to 200%:+)
CCOC1=C(OCC(O)CO)C(=O)OC1C(O)CO (stereo not drawn) [Example 96],Whitening effect (melanine production suppressing rate),[1],+ (20 to 40%:+)
CCCCCCCCCCCCCCCCOCC(O)COC1=C(OCC(O)CO)C(=O)OC1C(O)CO (stereo not drawn) [Example 82],Whitening effect (melanine production suppressing rate),[1],++ (40 to 70%:++)
CCCCCCCCOCC(O)COC1=C(OCC(O)COCCCCCCCC)C(C(O)CO)OC1=O (stereo not drawn) [Example 91],Whitening effect (melanine production suppressing rate),[1],+ (20 to 40%:+)
CCCCCCCCCCCCCOC1=C(OCC(O)CO)[C@@H]([C@@H](O)CO)OC1=O (stereo partly drawn) [Example 64],Whitening effect (melanine production suppressing rate),[1],++ (40 to 70%:++)
CCCCCCCCCCCCCCCCOC1=C(OCC(O)COCCCC)[C@@H]([C@@H](O)CO)OC1=O (stereo partly drawn) [Example 72],Whitening effect (melanine production suppressing rate),[1],++ (40 to 70%:++)
CCCCCCCCCOC1=C(OCC(O)CO)[C@@H]([C@@H](O)CO)OC1=O (stereo partly drawn) [Example 60],Whitening effect (melanine production suppressing rate),[1],+++ (70 to 100%:+++)
"CCOCC(O)COC1=C(O)C(=O)OC1C(O)CO (stereo not drawn) [Example 7, 3-O-ethylglyceryl ascorbic acid]",Whitening effect (melanine production suppressing rate),[1],+ (20 to 40%:+)
CCCCCCOC1=C(OCC(O)CO)[C@@H]([C@@H](O)CO)OC1=O (stereo partly drawn) [Example 58],Whitening effect (melanine production suppressing rate),[1],++ (40 to 70%:++)
"CCCCCCCCCCCCCCOC1=C(OCC(O)CO)[C@@H]([C@@H](O)CO)OC1=O (stereo partly drawn) [Example 65, 3-O-glyceryl-2-O-tetradecyl ascorbic acid]",whitening effect (in words),"[1]; conclusion from Tables 38-40, compared with known ascorbic acid derivatives",excellent whitening effect
same,Whitening effect (melanine production suppressing rate),[1],++ (40 to 70%:++)
CCCCCCCCC(O)COC1=C(OCCCC)C(=O)O[C@@H]1[C@@H](O)CO (stereo partly drawn) [Example 79],Whitening effect (melanine production suppressing rate),[1],+++ (70 to 100%:+++)
O=C1O[C@H]([C@@H](O)CO)C(OCC(O)COc2ccccc2)=C1O (stereo partly drawn) [Example 44],"Collagen production promoting effect (collagen production amount, % of control group)",[2],+ (100 to 200%:+)
3-O-ethylglyceryl-2-O-butyl ascorbic acid [Example 18],"Collagen production promoting effect (collagen production amount, % of control group)",[2],+ (100 to 200%:+)
3-O-(2-hydroxydecyl)-2-O-butylglyceryl ascorbic acid [Example 28],Whitening effect (melanine production suppressing rate),[1],++ (40 to 70%:++)
same,"Collagen production promoting effect (collagen production amount, % of control group)",[2],+ (100 to 200%:+)
CCCCCCCCCCCCOC1=C(OCC(O)COCCCC)[C@@H]([C@@H](O)CO)OC1=O (stereo partly drawn) [Example 71],Whitening effect (melanine production suppressing rate),[1],+ (20 to 40%:+)
CCCCCCCCOCC(O)COC1=C(OCCCCCCCC)C(=O)O[C@@H]1[C@@H](O)CO (stereo partly drawn) [Example 73],Whitening effect (melanine production suppressing rate),[1],+ (20 to 40%:+)
CCCCCCCCC(O)COC1=C(OCC)C(C(O)CO)OC1=O (stereo not drawn) [Example 98],Whitening effect (melanine production suppressing rate),[1],++ (40 to 70%:++)
"O=C1OC(C(O)CO)C(OC2CCCCC2O)=C1O (stereo not drawn) [compound 11, 3-O-(2-hydroxycyclohexyl) ascorbic acid]",Whitening effect (melanine production suppressing rate),[1],+ (20 to 40%:+)
same,activity at 100 µM,[2],100 to 200%
CCCCCCCCCCCCCCCCOCC(O)COC1=C(OCC(O)COCCCCCCCC)C(C(O)CO)OC1=O (stereo not drawn) [Example 92],Whitening effect (melanine production suppressing rate),[1],++ (40 to 70%:++)
same,"Collagen production promoting effect (collagen production amount, % of control group)",[2],+ (100 to 200%:+)
CCCCCCCCCCCCOCC(O)COC1=C(OCC(O)CO)C(C(O)CO)OC1=O (stereo not drawn) [Example 85],Whitening effect (melanine production suppressing rate),[1],++ (40 to 70%:++)
